Laboratory results reported in ChEMBL document CHEMBL5042493, “Enhancing monoamine oxidase B inhibitory activity via chiral fluorination: Structure-activity relationship, biological evaluation, and molecular docking study” (Eur J Med Chem, 2022).
The source made the active and inactive calls. No cut-off for these calls is given here.

Legend:
[1] = system: Rattus norvegicus; assay: Neuroprotective activity against galantamine-induced Sprague-Dawley rat model of Parkinson's disease assessed as reduction in galantamine-induced tremulous jaw movements at 0.156 to 1.25 mg/kg, ip preincubated with galantamine for 15 mins followed by compound addition and measured after 15 mins; assay type: functional, organism-based; conditions: dose 0.156-1.25 mg/kg
[2] = organism: Homo sapiens; assay: Selectivity index, ratio of IC50 for recombinant human MAO-A expressed in Sf9 cells to IC50 for recombinant human MAO-B expressed in Sf9 cells
[3] = AUC (0-t) in Sprague dawley rat at 1 mg/kg, iv measured upto 24 hrs; assay type: ADME, organism-based; set-up: route intravenous, dose 1 mg/kg, time <=24; conditions: in vivo
[4] = Half life in Sprague dawley rat at 5 mg/kg, po measured upto 24 hrs; assay type: ADME, organism-based; conditions: in vivo
[5] = Oral bioavailability in Sprague dawley rat at 5 mg/kg measured upto 24 hrs; assay type: ADME, organism-based; conditions: in vivo
[6] = AUC (0-t) in Cynomolgus monkey at 1 mg/kg, iv measured upto 24 hrs; assay type: ADME, organism-based, Macaca fascicularis; set-up: route intravenous, dose 1 mg/kg, time <=24; conditions: in vivo
[7] = Half life in Cynomolgus monkey at 1 mg/kg, iv measured upto 24 hrs; assay type: ADME, organism-based, Macaca fascicularis; conditions: in vivo
[8] = Cmax in Cynomolgus monkey rat at 5 mg/kg, po measured upto 24 hrs; assay type: ADME, organism-based, Macaca fascicularis; set-up: route oral, dose 5 mg/kg, time <=24; conditions: in vivo
[9] = Oral bioavailability in Cynomolgus monkey rat at 5 mg/kg measured upto 24 hrs; assay type: ADME, organism-based, Macaca fascicularis; conditions: in vivo
[10] = Metabolic stability in rat liver microsome assessed as half life at 1 uM measured after 60 min in presence of NADPH by LC-MS/MS analysis; assay type: ADME; conditions: liver microsomes
[11] = target: T1, Cytochrome P450 2B6 (Homo sapiens, UniProt P20813); assay: Inhibition of human CYP2B6 preincubated for 10 min followed by addition of NADPH and measured after 10 min by LC-MS/MS analysis; assay type: ADME
T1 sequence (P20813 whole entry): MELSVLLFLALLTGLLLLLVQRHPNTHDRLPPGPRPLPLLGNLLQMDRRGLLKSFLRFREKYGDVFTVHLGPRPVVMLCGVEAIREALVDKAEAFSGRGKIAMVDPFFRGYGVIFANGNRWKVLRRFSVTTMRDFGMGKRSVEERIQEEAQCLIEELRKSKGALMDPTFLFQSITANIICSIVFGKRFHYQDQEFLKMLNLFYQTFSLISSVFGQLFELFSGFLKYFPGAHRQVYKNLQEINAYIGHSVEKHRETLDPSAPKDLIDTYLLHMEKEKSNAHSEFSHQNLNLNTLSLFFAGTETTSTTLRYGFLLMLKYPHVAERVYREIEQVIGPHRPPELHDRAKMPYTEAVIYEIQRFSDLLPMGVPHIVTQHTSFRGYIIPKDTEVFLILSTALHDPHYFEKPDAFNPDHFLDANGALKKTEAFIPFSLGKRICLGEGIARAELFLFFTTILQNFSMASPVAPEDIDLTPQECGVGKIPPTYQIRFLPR

[12] = target: Cytochrome P450 2D6 (Homo sapiens, UniProt P10635); assay: Inhibition of human CYP2D6 preincubated for 10 min followed by addition of NADPH and measured after 10 min by LC-MS/MS analysis; assay type: ADME
[13] = Plasma protein binding in human assessed as unbound fraction at 1 uM measured after 5 hrs by LC-MS/MS analysis; assay type: ADME, cell-free
[14] = Plasma protein binding in dog assessed as unbound fraction at 1 uM measured after 5 hrs by LC-MS/MS analysis; assay type: ADME, cell-free, Canis lupus familiaris
[15] = Apparent permeability in MDCK-MDR1 cells from basal to apical side at 10 uM; assay type: ADME, cell-based, Canis lupus familiaris; conditions: dog
[16] = Toxicity in MPTP-induced C57BL/6 mouse model of Parkinson's disease assessed as effect on locomotor activity by measuring rearing activity at 0.625 to 1.25 mg/kg, ip pretreated for 15 mins followed by MPTP challenge and measured after 5 days post MPTP challenge; assay type: organism-based; conditions: in vivo, 120 h, dose 0.625-1.25 mg/kg, time 5 day
[17] = system: Salmonella typhimurium; assay: Genotoxicity in Salmonella typhimurium by Ames test; assay type: toxicity, organism-based; conditions: salmonella enterica subsp. enterica serovar typhimurium
[18] = target: 5-hydroxytryptamine receptor 2B (Homo sapiens) (UniProt P41595); assay: Binding affinity to 5-HT2B receptor (unknown origin) expressed in CHO-K1 cells; assay type: cell-based; conditions: concentration not given here
Chain of 5-hydroxytryptamine receptor 2B (Homo sapiens) (P41595 whole entry): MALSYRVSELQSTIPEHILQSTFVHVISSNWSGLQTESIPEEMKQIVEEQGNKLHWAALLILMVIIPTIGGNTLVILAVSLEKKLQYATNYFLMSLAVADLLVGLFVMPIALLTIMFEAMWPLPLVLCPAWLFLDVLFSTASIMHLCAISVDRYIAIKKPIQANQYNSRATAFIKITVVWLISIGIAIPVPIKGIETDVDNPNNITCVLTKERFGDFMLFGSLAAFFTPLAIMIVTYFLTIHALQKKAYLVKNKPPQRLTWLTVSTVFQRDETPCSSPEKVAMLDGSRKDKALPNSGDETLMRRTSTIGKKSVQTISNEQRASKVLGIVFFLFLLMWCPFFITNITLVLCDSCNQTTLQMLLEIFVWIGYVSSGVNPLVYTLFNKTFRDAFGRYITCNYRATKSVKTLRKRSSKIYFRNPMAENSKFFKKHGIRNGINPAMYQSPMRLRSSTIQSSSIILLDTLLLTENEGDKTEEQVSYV

Chain of Cytochrome P450 2D6 (P10635 whole entry): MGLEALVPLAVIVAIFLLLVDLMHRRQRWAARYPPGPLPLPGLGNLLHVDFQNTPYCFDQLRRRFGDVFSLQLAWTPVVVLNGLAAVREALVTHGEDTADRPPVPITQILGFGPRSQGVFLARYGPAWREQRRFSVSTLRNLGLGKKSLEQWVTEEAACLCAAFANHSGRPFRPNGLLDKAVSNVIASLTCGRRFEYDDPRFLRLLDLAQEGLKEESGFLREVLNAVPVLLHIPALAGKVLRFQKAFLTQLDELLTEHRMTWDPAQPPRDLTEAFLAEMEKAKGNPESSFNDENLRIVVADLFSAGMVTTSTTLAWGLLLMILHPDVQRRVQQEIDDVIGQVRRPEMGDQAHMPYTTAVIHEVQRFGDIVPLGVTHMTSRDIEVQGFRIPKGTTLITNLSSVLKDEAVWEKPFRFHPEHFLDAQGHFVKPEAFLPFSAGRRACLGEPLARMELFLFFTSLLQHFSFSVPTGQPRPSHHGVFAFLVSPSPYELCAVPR

AUC(0-t) at 24 h [3]: 505 ng·h/mL
half-life [4]: 34.2 min
bioavailability [5]: 55.2%
AUC(0-t) at 24 h [6]: 2120 ng·h/mL
half-life [7]: 106 min
Cmax [8]: 2280 ng/mL
bioavailability [9]: 107%
half-life at 1 µM [10]: 11.5 min
IC50 [11]: > 29 µM
IC50 [12]: > 29 µM
fraction unbound at 5 h, 1 µM [13]: 0.0363
fraction unbound at 5 h, 1 µM [14]: 0.0429
Papp B→A at 10 µM [15]: 22.8 ×10⁻⁶ cm/s
inhibition [18]: 57%
Structure (SMILES): NC(=O)[C@@H]1C[C@H](F)CN1Cc1ccc(OCc2cccc(F)c2)cc1
Activity [1]: Active
Ratio IC50 [2]: 2440
Activity [16]: Non-Toxic
Activity [17]: Non-Toxic
